Drawing on PubChem BioAssay (NCI), this text covers TGI for 1 molecule.

The assay concerns SN12K1 renal. Nature of the assay: growth of human tumour cells (NCI), 48 h.

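Step 1: Grow cells in 96-well plates. Step 2: Expose to compound for 48 hours at 5 concentrations. Step 3: Interpolate endpoints linearly; if unreached, use highest concentration. TGI marks complete inhibition of growth.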

Molecule `CCCCCCCC(=O)O[C@H]1[C@H]2[C@@H](CC1(C)C)C(=O)[C@]13O[C@H]1C(=O)[C@]1(CO1)[C@]23C` yielded a TGI of 9.3 µM.
